Results from a melting point compilation (Tetko et al.).

melting point	Compound
197 to 199 °C	Cc1nn(C)c2c1NC(=O)CS2
224 to 226 °C	O=C(O)C=Cc1cn(-c2ccccc2)nc1-c1cccs1
116 to 118 °C	CC(C)(C)OC(=O)N1CCc2ncc(N)cc2C1
81 to 83 °C	Cc1nn(-c2ccccc2)cc1N
118 to 120 °C	CCCOc1ccc(NS(C)(=O)=O)cc1
53 to 55 °C	COCCCC(=O)c1ccc(Br)cc1
122 to 124 °C	CC(C)(C)c1nc2ccc(S(=O)(=O)Cl)cc2s1
96 to 98 °C	Nc1nonc1-c1ccccc1
189 to 191 °C	Cc1nnc(-c2cccc(N)c2)n1C
139 to 141 °C	CNc1nc(-c2ccccc2[N+](=O)[O-])cs1
183 to 185 °C	COc1ccc(N2CC(C(=O)O)CC2=O)c(OC)c1 (configuration not stated)
94 to 96 °C	CCOC(=O)c1c(CCCO)cnc2c(C#N)cnn12
154 to 156 °C	OCc1cccc2nccn12
59 to 61 °C	Nc1ccnn1Cc1ccc(F)cc1
126 to 128 °C	O=C(O)C1(c2ccc(F)cc2)CC1
59 to 61 °C	CCCOc1ccc(CC(=O)O)cc1OCCC
219 to 221 °C	O=C(O)c1c[nH]c2cc(Cl)ccc12
134 to 136 °C	O=[N+]([O-])c1ccc(Br)c2ccncc12
160 to 162 °C	CCCC(NC(=O)NCc1ccc(Br)cc1)C(=O)O (configuration not stated)
171 to 173 °C	NC(=S)c1cc([N+](=O)[O-])ccc1N
86 to 88 °C	CC(C)Nc1nc(COc2ccccc2)no1
225 to 227 °C	Cc1ccc(-c2n[nH]c(S)nc2=O)cc1
213 to 215 °C	O=C1NC(=O)C(c2cccc(O)c2)N1 (configuration not stated)

melting point	Compound
193 to 195 °C	Cc1nc(S)c2c(C)c(C)sc2n1
153 to 155 °C	Nc1ccc(S(N)(=O)=O)cc1Br
74 to 76 °C	Nc1ccccc1N1CC(C(F)(F)F)OC1=O (configuration not stated)
84 to 86 °C	NC(=O)C(O)C1CCOC1 (configuration not stated)
164 to 166 °C	Cc1cc(C(=O)O)c(C)n1-c1ccccc1Br
154 to 156 °C	O=C(Nc1cccc(O)c1)c1cccs1
233 to 235 °C	O=C(O)c1ccccc1SCc1ccc(Br)cc1
125 to 127 °C	O=c1ccc(C(F)(F)F)n[nH]1
131 to 133 °C	CCN(CC)S(=O)(=O)c1ccc(N2CCNCC2)c([N+](=O)[O-])c1
164 to 166 °C	O=C(O)c1cccc(S(=O)(=O)Nc2ccccc2-c2ccccc2)c1
142 to 144 °C	N#Cc1cc(S(N)(=O)=O)ccc1F
237 to 239 °C	CCc1ccc(-c2nn[nH]n2)cc1
227 to 229 °C	CCOc1ccc(-n2ncc(C(=O)O)c2C)nn1
157 to 159 °C	CCOc1cc(C(N)=NO)cc(Br)c1O
228 to 230 °C	C=CCn1c(S)nc2sc3c(c2c1=O)CCC(C)C3 (configuration not stated)
105 to 107 °C	CC(NS(=O)(=O)c1ccccc1C(F)(F)F)C(=O)O (configuration not stated)
146 to 148 °C	COc1ccc(NC(=O)NN)cc1
82 to 84 °C	CC(C)(Br)C(=O)Nc1ccccc1
91 to 93 °C	COc1ccc(OC(C)C(=O)O)cc1 (configuration not stated)
40 to 42 °C	CCC(N)=S
204 to 206 °C	Cc1sc2nc(C)n(N)c(=O)c2c1C
143 to 145 °C	Cc1ccc(C)c(S(=O)(=O)N2CCN(C(=O)CCC(=O)O)CC2)c1
99 to 101 °C	Cc1ccc(NS(=O)(=O)c2ccc(Cl)c([N+](=O)[O-])c2)c(C)c1

melting point	Compound
187 to 189 °C	Cc1n[nH]c(C)c1S(=O)(=O)N1CCN(C)CC1
90 to 92 °C	COCCn1c(N)cc(=O)[nH]c1=O
76 to 78 °C	O=C(CCl)Nc1ccc(F)cc1Cl
125 to 127 °C	CS(=O)(=O)c1ccc(OCCCCC(=O)O)cc1
179 to 181 °C	Nc1cc(S(=O)(=O)N2CCOCC2)ccc1N1CCCC1
137 to 139 °C	O=C(O)COc1ccc(C2SCCS2)cc1
189 to 191 °C	CC(C)CSc1ccc([N+](=O)[O-])cc1C(=O)O
96 to 98 °C	Nc1cc(C2CC2)nc2ccc(Cl)cc12
192 to 194 °C	COc1cc(F)c(C(=O)O)cc1OC
164 to 166 °C	Nc1nc2ccccc2n1-c1ccc(F)cc1
200 to 202 °C	CC(C)(C)C(=O)Nc1cn[nH]c1
138 to 140 °C	O=S(=O)(Cl)c1ccc2nc(Cl)ccc2c1
223 to 225 °C	O=C(O)Cc1csc(NC(=O)c2ccco2)n1
251 to 253 °C	O=C(O)c1cc(Br)c2c(c1)OCO2
209 to 211 °C	Cc1ccc2c(C)cc(=O)[nH]c2c1
130 to 132 °C	O=C1C(=O)N(Cc2ccccc2Cl)c2ccccc21
95 to 97 °C	CN(C)S(=O)(=O)c1ccc(O)cc1
151 to 153 °C	CCc1ccc(S(C)(=O)=O)cc1C(=O)O
69 to 71 °C	CS(=O)(=O)c1ccc(Cl)s1
87 to 89 °C	O=C(O)CCCNC(=O)c1ccccc1
199 to 201 °C	CCCn1c(C)cc(/C=C(\C#N)C(=O)O)c1C
179 to 181 °C	O=c1[nH]c(-c2ccc(F)cc2)cs1
116 to 118 °C	NC(=O)CCC1CCCCC1

melting point	Compound
179 to 181 °C	CCn1c(=O)n(CCC(=O)O)c2ccccc21
126 to 128 °C	N#Cc1cc2c(nc1Cl)CCC2
120 to 122 °C	CCOC(=O)c1sc(-c2ccc(OC)cc2)cc1N
285 to 287 °C	Cn1ncc2c(=O)[nH]c(NN)nc21
239 to 241 °C	NNC(=O)c1sc2cc(F)ccc2c1Cl
139 to 141 °C	Cc1cc(C(=O)CCl)c(C)n1-c1ccc(Cl)c(C(F)(F)F)c1
114 to 116 °C	CC(Cl)C(=O)N1CCCC(C(N)=O)C1 (configuration not stated)
104 to 106 °C	Cc1cc(-n2nc(C)cc2N)nc(C)n1
153 to 155 °C	NS(=O)(=O)c1ccc(F)cc1[N+](=O)[O-]
124 to 126 °C	COC(=O)c1cc(Cl)c(N)cc1OC
151 to 153 °C	COCCn1c(N)c(NCc2ccccc2)c(=O)[nH]c1=O
101 to 103 °C	O=C(CO)NCc1ccccc1
84 to 86 °C	NC(=O)CCSc1ccccc1F
234 to 236 °C	Cc1occc1-c1nnc(S)n1-c1ccccc1
215 to 217 °C	CCOC(=O)c1cnn2c(O)cc(CCl)nc12
133 to 135 °C	O=C(O)C(Oc1ccc(F)cc1Br)c1ccccc1 (configuration not stated)
54 to 56 °C	COc1cc(F)c(F)cc1[N+](=O)[O-]
59 to 61 °C	N#Cc1ccc(S)c(F)c1
96 to 98 °C	O=C(c1ccccn1)c1cc2ccccc2o1
129 to 131 °C	Brc1cccc(-c2ncc[nH]2)c1
175 to 177 °C	CCN(c1ccccc1)S(=O)(=O)c1ccc(NN)nc1
70 to 72 °C	CN(C)C(=O)CC(=O)O
74 to 76 °C	Fc1cccc(CCNC2=NCCS2)c1

melting point	Compound
187 to 189 °C	CC(C1CC1)N(C)C(=O)c1ccc[nH]c1=O (configuration not stated)
169 to 171 °C	Cn1c(C2CC2)nc2c1CCNC2
249 to 251 °C	O=C(Cc1nc2ccccc2[nH]1)C(F)(F)F
47 to 49 °C	CC(C)(C)OC(=O)NCC(N)C1CCCCC1 (configuration not stated)
159 to 161 °C	COc1cc(C(=O)O)c([N+](=O)[O-])cc1OCC1CCCO1 (configuration not stated)
279 to 281 °C	O=C(O)c1cc2cc(Br)cc(Br)c2o1
184 to 186 °C	CCOc1ccc(C(=O)O)cn1
253 to 255 °C	O=C(Nc1cc(F)ccc1C(=O)O)c1ccoc1
50 to 52 °C	CC(N)c1ccc(-n2ccnc2)cc1 (configuration not stated)
66 to 68 °C	CNc1ccccc1C#N
53 to 55 °C	CCS(=O)(=O)c1ccc(CC(=O)O)cc1
136 to 138 °C	O=C(O)C1CCCN(S(=O)(=O)c2cccs2)C1 (configuration not stated)
57 to 59 °C	CC(C)CNC(=O)CC#N
58 to 60 °C	COc1ccc(CCC(=O)CC#N)cc1
130 to 139 °C	CC(Cl)C(=O)NC(c1ccccc1)c1ccccc1 (configuration not stated)
218 to 222 °C	COC(=O)c1n[nH]c(N)n1
39 to 41 °C	COc1ncc(Br)cc1CC#N
100 to 102 °C	CS(=O)(=O)CCC(=O)O
167 to 169 °C	CC(C)NS(=O)(=O)c1ccc(F)c(C(=O)O)c1
154 to 156 °C	COc1ccccc1NC(=O)CC(=O)Nc1ccccc1OC
89 to 91 °C	COC(=O)c1cc(-c2cccs2)ccc1N
91 to 93 °C	COc1ccc(C(C)=O)cc1-c1ccccc1
126 to 128 °C	N#Cc1cccc2cnccc12

melting point	Compound
102 to 104 °C	Cc1cc(C(=O)CCl)c(C)n1-c1ccc(C(C)(C)C)cc1
54 to 56 °C	CC(CO)NCc1ccccc1Cl (configuration not stated)
68 to 70 °C	NNC(=O)NCC(F)(F)F
109 to 111 °C	CCC(=O)Nc1ccc(S(=O)(=O)Cl)cc1
80 to 82 °C	COc1ccc(S(=O)(=O)Cl)cc1Cl
51 to 53 °C	COC(=O)c1sc(C)cc1O
212 to 214 °C	Cc1ccc(-c2nn(-c3ccc(F)cc3)cc2C(=O)O)cc1
124 to 126 °C	COc1cc(C(C)=O)ccc1S(C)(=O)=O
278 to 280 °C	Cc1nn(-c2ccccc2)c2ncc(C(=O)O)cc12
130 to 132 °C	NCc1ccc(OCCOc2ccc(Cl)cc2)cc1
152 to 154 °C	Nc1ccc2cccc(Br)c2n1
181 to 183 °C	O=S1(=O)N=C2CCCCCN2C(CCl)N1 (configuration not stated)
135 to 137 °C	C=CC(=O)Nc1cc(N)ccc1F
150 to 152 °C	Nc1cc2c(cc1[N+](=O)[O-])OCCO2
44 to 46 °C	CCOC(=O)c1cc(C)cc(Br)c1N
189 to 191 °C	NC(=S)c1ccc(N)cc1
212 to 214 °C	O=C(Nc1ccc(O)cc1)C1CC1
100 to 102 °C	CCOc1ccc(-c2nn(-c3ccccc3)cc2C=O)cc1Cl
72 to 74 °C	CC(C)c1cccc(C(C)C)c1NCCO
159 to 161 °C	CCCOc1nc2ccccc2cc1/C=C/C(=O)O
225 to 227 °C	O=C(O)c1cc(-c2cccc3ccccc23)nc2ccccc12
38 to 40 °C	COC(=O)C(C)Oc1ccc(F)cc1Br (configuration not stated)

Compound	melting point
Cc1ccc(-c2nn(Cc3ccccc3)cc2C=O)cc1C	79 to 81 °C
Cn1cc(S(=O)(=O)Cl)cn1	48 to 50 °C
O=C1OC(O)C(Br)=C1Br (configuration not stated)	122 to 124 °C
CN1CCc2nc3ccccc3c(C(=O)O)c2C1	254 to 256 °C
COc1ccc(CCl)cc1Br	45 to 51 °C
